Source: patent publication US5834453A, “Methods for the manufacture and use of antimicrobial sterol conjugates” (Lehigh University, priority 1997, dated 1998)
≈ marks a conversion by molar mass, not a printed value. Entries after “also recorded” stand apart in the source; their conditions may differ. Where two headings read alike, the source gives them in different places.

Tests used:
[1] = system: various groups of microorganisms; assay: Antimicrobial activity (MIC), all microorganisms tested; format: cell-based; details: for MIC: 24 h, read-out: MICs against the various groups of microorganisms tested
Protocol: (§1) The antimicrobial activity of the compounds according to the present invention were compared with the results obtained for squalamine as reported in Proc. Nat. Acad. Sci. USA 90:1354 (1993), supra, the disclosure of which is incorporated in toto herein. The data reported in the following table is the minimum inhibitory concentration (MIC) required for complete inhibition of microbial growth. The MIC was determined utilizing known micro-broth dilution methods in which inocula of 10^6 /ml of the test organism were incubated in 0.5× trypticase soy broth at 35° C. for 24 hours. MIC's were also tested under various pH conditions, with calcium chloride or magnesium chloride, or with immobilized horse serum.
(§2) The numbers in parentheses contained in the table correspond to accession numbers with the American Type Culture Collection (reference strains were either obtained from the American Type Culture Collection or from the Microbiology Laboratory at Memorial Sloan-Kettering Cancer Center; Bacterial strains were maintained on Columbia 5% sheep blood agar plates, and fungi were maintained on Sabouraud Dextrose agar plates).

[2] = system: E. faecalis (29212); assay: MIC, micro-broth dilution; format: cell-based; details: Enterococcus faecalis, 35° C., 24 hours, read-out: ANTIMICROBIAL ACTIVITY (MIC)
Protocol: as §1, §2

[3] = system: S. aureus (29213); assay: MIC, micro-broth dilution; format: cell-based; details: Staphylococcus aureus, read-out: ANTIMICROBIAL ACTIVITY (MIC)
Protocol: as §1, §2

[4] = system: P. aeruginosa (10145); assay: MIC, micro-broth dilution; format: cell-based; details: Pseudomonas aeruginosa, 35° C., 24 hours, read-out: ANTIMICROBIAL ACTIVITY (MIC)
Protocol: as §1, §2

[5] = system: S. pneumoniae (6305); assay: MIC, micro-broth dilution; format: cell-based; details: Streptococcus pneumoniae, 35° C., 24 hours, read-out: ANTIMICROBIAL ACTIVITY (MIC)
Protocol: as §1, §2

[6] = system: P. aeruginosa (2853); assay: MIC, micro-broth dilution; format: cell-based; details: Pseudomonas aeruginosa, 24 h, read-out: ANTIMICROBIAL ACTIVITY (MIC)
Protocol: as §1, §2

[7] = system: A. fumigatus (H29709); assay: MIC, micro-broth dilution; format: cell-based; details: Aspergillus fumigatus, 35° C., 24 hours, read-out: ANTIMICROBIAL ACTIVITY (MIC)
Protocol: as §1, §2

[8] = system: S. pyrogenes (19615); assay: MIC, micro-broth dilution; format: cell-based; details: 24 h, read-out: ANTIMICROBIAL ACTIVITY (MIC)
Protocol: as §1, §2

[9] = system: A. fumigatus (H1120); assay: MIC, micro-broth dilution; format: cell-based; details: Aspergillus fumigatus, 35° C., 24 hours, read-out: ANTIMICROBIAL ACTIVITY (MIC)
Protocol: as §1, §2

[10] = system: S. agalactiae (13813); assay: MIC, micro-broth dilution; format: cell-based; details: Streptococcus agalactiae, 35° C., 24 hours, read-out: ANTIMICROBIAL ACTIVITY (MIC)
Protocol: as §1, §2

[11] = system: E. faecium (T6480-9); assay: MIC, micro-broth dilution; format: cell-based; details: Enterococcus faecium, 35° C., 24 hours, read-out: ANTIMICROBIAL ACTIVITY (MIC)
Protocol: as §1, §2

[12] = system: C. neoformans (M68979); assay: MIC, micro-broth dilution; format: cell-based; details: Cryptococcus neoformans, 24 h, read-out: ANTIMICROBIAL ACTIVITY (MIC)
Protocol: as §1, §2

[13] = system: P. vulgaris (13315); assay: MIC, micro-broth dilution; format: cell-based; details: Proteus vulgaris, 35° C., 24 hours, read-out: ANTIMICROBIAL ACTIVITY (MIC)
Protocol: as §1, §2

[14] = system: E. coli (25922); assay: MIC, micro-broth dilution; format: cell-based; details: Escherichia coli, 35° C., 24 hours, read-out: ANTIMICROBIAL ACTIVITY (MIC)
Protocol: as §1, §2

[15] = system: E. cloacae (13047); assay: MIC, micro-broth dilution; format: cell-based; details: Enterobacter cloacae, 35° C., 24 hours, read-out: ANTIMICROBIAL ACTIVITY (MIC)
Protocol: as §1, §2

[16] = system: S. marcescens (13880); assay: MIC, micro-broth dilution; format: cell-based; details: for MIC: Serratia marcescens, 24 h, read-out: ANTIMICROBIAL ACTIVITY (MIC)
Protocol: as §1, §2

[17] = system: C. albicans (90028); assay: MIC, micro-broth dilution; format: cell-based; details: Candida albicans, 35° C., 24 hours, read-out: ANTIMICROBIAL ACTIVITY (MIC)
Protocol: as §1, §2

[18] = system: C. neoformans (90012); assay: MIC, micro-broth dilution; format: cell-based; details: Cryptococcus neoformans, 24 h, read-out: ANTIMICROBIAL ACTIVITY (MIC)
Protocol: as §1, §2

[19] = system: S. epidermidis (12228); assay: MIC, micro-broth dilution; format: cell-based; details: Staphylococcus epidermidis, 35° C., 24 hours, read-out: ANTIMICROBIAL ACTIVITY (MIC)
Protocol: as §1, §2

[20] = system: K. pneumoniae (13883); assay: MIC, micro-broth dilution; format: cell-based; details: Klebsiella pneumoniae, 24 h, read-out: ANTIMICROBIAL ACTIVITY (MIC)
Protocol: as §1, §2

[21] = system: sheep red blood cells; assay: Hemolytic activity, minimal hemolytic concentration (MHC); format: cell-based;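 for MCC: MCC here is the minimal hemolytic concentration (MHC)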
Protocol: (§3) Hemolytic activity of the squalamine mimics according to the present invention were also studied by incubating sheep red blood cells for 24 hours at 37° C. in saline (final concentration of 0.5%) with or without respective concentrations of the squalamine mimics. The minimal hemolytic concentration (MHC) was determined as the lowest concentration of a mimic that raised visible hemolysis.

[22] = as above; format: cell-based, sheep
Protocol: as §3

[23] = system: S. aureus (25923); assay: MIC, micro-broth dilution; format: cell-based; details: Staphylococcus aureus, 35° C., 24 hours, read-out: ANTIMICROBIAL ACTIVITY (MIC)
Protocol: as §1, §2

[24] = system: S. aureus (H20809); assay: MIC, micro-broth dilution; format: cell-based; details: Staphylococcus aureus, 24 h, read-out: ANTIMICROBIAL ACTIVITY (MIC)
Protocol: as §1, §2

Compound	MIC [1]	MIC [2]	MIC [4]	MIC [5]	MIC [6]	MIC [8]	MIC [9]	MIC [10]	MIC [11]	MIC [12]	MIC [13]	MIC [14]	MIC [15]	MIC [16]	MIC [17]	MIC [19]	MIC [20]	other results
C[C@H](C(=O)NCCCCN)[C@H]1CC[C@H]2[C@@H]3CC=C4C[C@@H](O)CC[C@]4(C)[C@H]3CC[C@]12C [SM-3]	> 100 µg/mL	–	–	–	–	–	–	–	–	–	–	–	–	–	–	–	–	–
C[C@H](C(=O)NCCCCN)[C@H]1CC[C@H]2[C@@H]3CC=C4C[C@@H](OS(=O)(=O)O)CC[C@]4(C)[C@H]3CC[C@]12C [SM-4]	> 100 µg/mL	–	–	–	–	–	–	–	–	–	–	–	–	–	–	–	–	–
C[C@H](CCCNCCCNCCCCNCCCN)[C@H]1CC[C@H]2[C@@H]3CC[C@@H]4C[C@H](O)CC[C@]4(C)[C@H]3C[C@H](O)[C@]12C [SM-7H]	–	6.25 µg/mL (≈ 11.1 µM)	3.13 µg/mL (≈ 5.56 µM)	1.56 µg/mL (≈ 2.77 µM)	3.13 µg/mL (≈ 5.56 µM)	0.39 µg/mL (≈ 0.693 µM)	12.5 µg/mL (≈ 22.2 µM)	0.78 µg/mL (≈ 1.39 µM)	6.25 µg/mL (≈ 11.1 µM)	0.39 µg/mL (≈ 0.693 µM)	6.25 µg/mL (≈ 11.1 µM)	6.25 µg/mL (≈ 11.1 µM)	12.5 µg/mL (≈ 22.2 µM)	12.5 µg/mL (≈ 22.2 µM)	6.25 µg/mL (≈ 11.1 µM)	0.39 µg/mL (≈ 0.693 µM)	12.5 µg/mL (≈ 22.2 µM)	MIC ([3]; S. aureus (29213), 35° C., 24 hours): 0.78 µg/mL (≈ 1.39 µM); MIC [7]: 12.5 µg/mL (≈ 22.2 µM); activity against S. marcescens ([16]; in words): found even against S. marcescens; also recorded: effective against S. marcescens; MIC [18]: 0.39 µg/mL (≈ 0.693 µM); hemolytic activity (in words) [21]: unwanted hemolytic activity; MCC at 24 h ([22]; sheep, red blood cells): 50 µg/mL
C[C@H](CCC(=O)NCCCNCCCCNCCCN)[C@H]1CC[C@H]2[C@@H]3[C@H](O)C[C@@H]4C[C@H](O)CC[C@]4(C)[C@H]3C[C@H](O)[C@]12C [SM-13, cholic acid-spermine conjugate]	–	50 µg/mL (≈ 84.3 µM)	25 µg/mL (≈ 42.2 µM)	25 µg/mL (≈ 42.2 µM)	25 µg/mL (≈ 42.2 µM)	3.13 µg/mL (≈ 5.28 µM)	25 µg/mL (≈ 42.2 µM)	12.5 µg/mL (≈ 21.1 µM)	50 µg/mL (≈ 84.3 µM)	3.13 µg/mL (≈ 5.28 µM)	> 100 µg/mL	25 µg/mL (≈ 42.2 µM)	> 100 µg/mL	> 100 µg/mL	12.5 µg/mL (≈ 21.1 µM)	3.13 µg/mL (≈ 5.28 µM)	> 100 µg/mL	MIC ([3]; 24 h): 12.5 µg/mL (≈ 21.1 µM); MIC [23]: 6.25 µg/mL (≈ 10.5 µM); MIC [24]: 6.25 µg/mL (≈ 10.5 µM); minimal hemolytic concentration (MHC) at 24 h ([22]; sheep red blood cells, 24 hours at 37° C. in saline): > 100 µg/mL; antimicrobial activity (in words) [1]: lesser activity; also recorded: more activity than SM-8, SM-14, and SM-22
C[C@H](CCC(=O)NCCCNCCCCNCCCN)[C@H]1CC[C@H]2[C@@H]3[C@H](OS(=O)(=O)O)C[C@@H]4C[C@H](OS(=O)(=O)O)CC[C@]4(C)[C@H]3C[C@H](OS(=O)(=O)O)[C@]12C [SM-14]	> 100 µg/mL	–	–	–	–	–	–	–	–	–	–	–	–	–	–	–	–	–
